The results in this text go back to PubChem BioAssay AID720587 (Broad Institute, 2013).

SMILES strings stand for the structures. Activity calls are given as the source filed them.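 The calls were made as follows: active = fitted curve reaches -35% activity change at a concentration below twice the top valid dose tested; inactive = the rest, including effects opposite to the expected direction.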

The nature of the experiment: A673 Ewing sarcoma viability loss – cell-based, CellTiter-Glo luminescence, cherry-pick retest, confirmation (AID 720587). The note with it: A673 Ewing sarcoma viability, CellTiter-Glo ATP luminescence, 72 h.

As to `CC(=O)c1ccc(N=Nc2ccc(C)cc2)cc1`, where the note is “at 26 µM (top of the series)”, the activity change, negative = cytotoxicity is 2.05% (inactive). Same read-out and setting: next, `Cc1ccc(NC(=O)CCN2CCCCC2)cc1`: 12.4% (inactive); `CCCN(C)C[C@H]1Oc2ncc(-c3ccccc3)cc2C(=O)N([C@@H](C)CO)C[C@H]1C`: -4.17% (inactive); `COc1ccc(/C=C2\SC(=O)N(CCCC(=O)Nc3ccc(C(=O)O)cc3)C2=O)cc1`: -0.477% (inactive). Regarding `Cc1ccc(/C=N/Nc2ccc3ccccc3n2)o1`, the activity change, negative = cytotoxicity (at 26 µM (top of the series)) is -3.75% (inactive). On the same count and under the same terms, then `c1cncc(-c2ccc([C@@H]3[C@H]4CNC[C@@H]3N4CC3CCOCC3)cc2)c1`, with 9.2% (inactive); and `C=CCn1c(O)c(N=Nc2ccccc2)c2ccccc21`, with 7.11% (inactive); and `CC(=O)c1ccc(NC(=O)c2noc3c2CCC3)cc1`, with -3.66% (inactive). On to `CCOc1ccc(/C=C2\CCc3ccccc3C2=O)cc1`, for which the activity change, negative = cytotoxicity (at 26 µM (top of the series)) was -1.55% (inactive). Same read-out and setting: then `Cc1cc(-c2nc3ccccc3s2)ccc1N`, with -21.8% (inactive); and `COc1ccc2oc(-c3ccccc3)cc(=O)c2c1`, with -12.3% (inactive). The same measure, in the same setting: next, `COc1ccc(NC(=O)N(C)[C@H]2C[C@H]3c4[nH]c5ccccc5c4CCN3C(=O)[C@H]2CO)cc1`: 5.76% (inactive).

For the compound `O=C1Nc2ccccc2C1=Nc1ccccc1-c1ccccc1`, the activity change, negative = cytotoxicity (at 26 µM (top of the series)) is -7.56% (inactive). Consider `O=C(O)c1ccc(N/N=C/c2ccc(OC(=O)c3cccc(Cl)c3)cc2)cc1`, for which the activity change, negative = cytotoxicity (at 26 µM (top of the series)) was -8.45% (inactive). Still for that read-out and setting: then `Nc1ccc(-c2cc3ccccc3c(=O)o2)cc1`, with -2.08% (inactive). In the case of `O=C1C(=O)N(Cc2cccs2)c2ccccc21`, the activity change, negative = cytotoxicity (at 26 µM (top of the series)) was -4.57% (inactive). Still for that read-out and setting: then `COc1ccc(Cl)cc1S(=O)(=O)Nc1ccc2c(c1)n(C)c(=O)n2C`, with -1.58% (inactive). For the compound `C/C=C/c1ccc([C@H]2[C@@H](CO)N3C(=O)CN(S(=O)(=O)c4cccc(F)c4)C[C@@H]23)cc1`, where the note is “at 26 µM (top of the series)”, the activity change, negative = cytotoxicity is -5.5% (inactive).

On to `CC(=O)N1CCCC(c2cc(C(=O)Nc3ccccc3)no2)C1` (stereo unspecified), for which the activity change, negative = cytotoxicity (at 26 µM (top of the series)) is 9.56% (inactive).

For `CCOc1ccc(-c2noc(CCC(=O)O)n2)cc1`, the activity change, negative = cytotoxicity (at 26 µM (top of the series)) is 6.68% (inactive). `N#C[C@H]1N[C@H](CO)[C@H]1c1ccc(C#Cc2ccccc2F)cc1`: under “at 23.5 µM (top of the series)”, the activity change, negative = cytotoxicity is 3.42% (inactive). With `CCOC(=O)Cc1ccc(NC(=O)c2ccccc2Br)cc1`, under “at 26 µM (top of the series)”, the activity change, negative = cytotoxicity was -0.788% (inactive). Still for that read-out and setting: then `CCN(CC)C(=O)CN1C(=O)C(=O)c2ccccc21`, with -0.157% (inactive); and `CC(=O)Nc1cc(C(=O)NCc2ccco2)ccc1Sc1ccc(F)cc1`, with 8.55% (inactive); and `C[C@H](CO)N1C[C@H](C)[C@H](CN(C)Cc2ccc(C(F)(F)F)cc2)Oc2c(NS(=O)(=O)c3ccc(Cl)cc3)cccc2C1=O`, with 4.37% (inactive). Turning to `COc1ccc(Nc2oc(COc3ccccc3OC)nc2C#N)cc1`, the activity change, negative = cytotoxicity (at 26 µM (top of the series)) is 2.48% (inactive). The same measure, in the same setting: next, `CC(C)(C)c1ccc(/C=N/Nc2ccc(C(=O)O)cc2)cc1`: -3.68% (inactive); `OCCN1CCN(C(=S)c2ccc(-c3ccccc3)cc2)CC1`: 6.18% (inactive).

`O=C(Nc1nc(-c2ccc(F)c(F)c2)cs1)c1ccc(OCC2CCCO2)cc1` (stereo unspecified): under “at 26 µM (top of the series)”, the activity change, negative = cytotoxicity is 5.7% (inactive). The same measure, in the same setting: then `CCCc1cc(=O)oc2c3c(c4c(c12)OC(C)(C)C=C4)OC(C)C(C)C3O` (stereo unspecified), with -3.35% (inactive). Same read-out and setting: then `CC(=O)Nc1ccc(OCC(=O)N(CC(C)C)C2CCS(=O)(=O)C2)cc1` (stereo unspecified), with 8.05% (inactive); and `C(=C\c1ccc(C2[C@H]3CNC[C@@H]2N3Cc2ccccn2)cc1)/c1ccccc1` (stereo partly specified), with -3.03% (inactive); and `CCCNC(=O)N1[C@H](C#N)[C@H](c2ccc(C#Cc3ccc(F)cc3)cc2)[C@H]1CO`, with -13.6% (inactive). The same measure, in the same setting: next, `COC(=O)C[C@@H]1CC[C@@H]2[C@@H](COc3ccc(NC(=O)Cc4cccs4)cc3C(=O)N2C)O1`: -23.4% (inactive).

For `O=C1C(=O)N(CCS(=O)(=O)c2ccccc2)c2ccccc21`, the activity change, negative = cytotoxicity (at 26 µM (top of the series)) was 12.4% (inactive). Still for that read-out and setting: next, `O=C(COC(=O)c1ccc[nH]c1=O)Nc1ccc(N2CCCCC2)cc1`: 0.213% (inactive); `CC(Oc1cccc(Cl)c1)C(=O)NCCCCc1ccccc1` (stereo unspecified): 3.26% (inactive); `COc1ccc(S(=O)(=O)N=Nc2c(O)[nH]c3ccccc23)cc1`: 8.74% (inactive). Still for that read-out and setting: then `COC(=O)Cc1[nH]n(-c2nc3ccccc3s2)c(=O)c1C(C)=Nc1ccc(C)cc1`, with -10.7% (inactive); and `COC(=O)Cc1ccc(NC(=O)c2ccccc2Cl)cc1`, with 5% (inactive). Same read-out and setting: next, `S=C(NCCN1CCOCC1)Nc1ccccc1Cl`: 3% (inactive); `COc1cc(/C=N/NS(=O)(=O)c2ccc(C)cc2)ccc1OCc1cccc(C(=O)O)c1`: -3.14% (inactive).

For the compound `O=C(O)c1ccc(N/N=C/c2c[nH]c3ccccc23)cc1`, where the note is “at 26 µM (top of the series)”, the activity change, negative = cytotoxicity was -1.6% (inactive). As for `O=c1c2ccccc2oc2ccc(C#CC3(O)CCCCC3)cc12`, the activity change, negative = cytotoxicity (at 26 µM (top of the series)) was 1.29% (inactive). The same measure, in the same setting: then `CC(C)CN(C(=O)CN1CCOCC1)c1c(N)n(CC(C)C)c(=O)[nH]c1=O`, with -1.6% (inactive); and `COc1ccc(CNc2ncc(-c3ccc(F)cc3)n2C)c2ccccc12`, with 2.68% (inactive); and `COc1ccc(C(=O)Nc2cccc(C(=O)N/N=C/c3ccc(OC)cc3OC)c2)cc1`, with -1.59% (inactive). In the case of `Cc1csc(NC(=O)CCc2c(C)nc3cc(-c4ccc(Cl)cc4)nn3c2C)n1`, the activity change, negative = cytotoxicity (at 26 µM (top of the series)) is 1.02% (inactive). Still for that read-out and setting: next, `O=C(O)c1cccc(N/N=C/c2ccc(OC(F)(F)F)cc2)c1`: 10.4% (inactive). For the compound `COC(=O)C[C@@H]1CC[C@@H]2[C@H](COc3ccc(NC(=O)c4cccc(F)c4)cc3C(=O)N2C)O1`, the activity change, negative = cytotoxicity (at 23.5 µM (top of the series)) is -1.57% (inactive). As to `COc1ccc(Nc2ncnc3ccc(Br)cc23)c(OC)c1`, the activity change, negative = cytotoxicity (at 26 µM (top of the series)) was -5.17% (inactive).

For the compound `O=C(O)c1cccc(N/N=C/c2cccs2)c1`, the activity change, negative = cytotoxicity (at 26 µM (top of the series)) is -8.12% (inactive). The same measure, in the same setting: next, `O=C(Cc1nn[nH]n1)c1ccccc1O`: 0.33% (inactive); `COc1cc(C(c2c(C)[nH][nH]c2=O)c2c(C)[nH][nH]c2=O)ccc1OC(C)C`: -4.73% (inactive). On the same count and under the same terms, next, `CN(C)Cc1c(O)ccc2c1O/C(=C\C=C\c1ccccc1)C2=O`: -7.01% (inactive); `CN(C)[C@@H]1CCC[C@@H]1OC(=O)C(c1ccccc1)c1ccccc1`: -2.99% (inactive).
